From patent US11478526B2, “Methods of reducing neuroinflammation or toxicity induced by amyloid beta (abeta) using glucocorticoid induced leucine zipper (GILZ) analog peptides” (INDIANA UNIVERSITY RESEARCH AND TECHNOLOGY CORPORATION, priority 2016, dated 2022)

Columns and labels:
[1] = target: T1, Recombinant human p65 protein (r-p65) (Homo sapiens, UniProt Q04206); assay: Plate binding ELISA of GA/PGA with r-p65 (KD by method of Friguet)
T1 construct: purchased Ori-Gene Technologies Inc., Rockville, Md; TP320780
T1 sequence (Q04206 whole entry): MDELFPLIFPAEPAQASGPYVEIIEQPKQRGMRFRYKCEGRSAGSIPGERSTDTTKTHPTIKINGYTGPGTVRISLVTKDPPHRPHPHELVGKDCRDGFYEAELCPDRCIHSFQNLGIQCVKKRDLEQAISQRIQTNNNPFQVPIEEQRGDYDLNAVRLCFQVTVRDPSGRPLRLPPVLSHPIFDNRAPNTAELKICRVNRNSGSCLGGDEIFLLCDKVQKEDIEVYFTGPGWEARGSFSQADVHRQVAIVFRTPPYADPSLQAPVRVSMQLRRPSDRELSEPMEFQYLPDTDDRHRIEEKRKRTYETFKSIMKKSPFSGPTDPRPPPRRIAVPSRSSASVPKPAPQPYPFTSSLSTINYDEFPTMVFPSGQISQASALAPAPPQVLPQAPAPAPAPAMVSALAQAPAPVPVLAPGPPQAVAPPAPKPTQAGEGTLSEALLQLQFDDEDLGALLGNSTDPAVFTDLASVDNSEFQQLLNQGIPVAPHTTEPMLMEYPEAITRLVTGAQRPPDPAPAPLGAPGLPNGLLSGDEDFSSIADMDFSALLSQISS
Description: We used similar method to determine direct binding kinetics of GA hexapeptides with human r-p65. […] Absorbance at 650 nm was measured with a mixing time of 30 s using BIORAD microplate reader. […] The dissociation constant of the interaction between the GA or the control peptide and r-p65 was determined by the method of Friguet et al., as described. A fraction of the bound r-p65 (x) and the ratio of bound r-p65 to the free GA or control peptide (y) was determined by the equations: x=(A0−A)/(A0), where A0 is the absorbance of r-p65anti-p65 complex in the absence of bound GA or control peptide and y=(A0−A)/(a0−i0)×(A0−A)/(A0), where a0 is the total concentration of GA or control peptide and i0 is the total concentration of r-p65.
Kinetics of PGA:-p65 interaction: The binding kinetics of top five PGA with full length human r-p65 was assessed as described. Plate bound GILZ-P or PGA at increasing concentrations was probed with r-p65-DDK (Ori-Gene Technologies Inc., Rockville, Md.) at constant concentration and detected with anti-DDK.

[2] = LD50 predicted from in-vitro IC50 by regression (Speilmann method); details: for LD50 estimated from IC50: Log (LD50)=0.506×(log IC50)+0.475, body weight; for LD50 (mM): score 1/0
Description: Lactate dehydrogenase (LDH) assay: To detect direct GA-induced cell lysis we performed LDH release assays (Roche Molecular Diagnostics). […] Approximately 5×10^4 U373 cells/well were cultured in 96-well plates in the presence of increasing concentrations of individual GA or control peptide from 0.5 μM to 500 μM. Cells treated with 2% triton-X 100 (Sigma Aldrich, St. Louis, Mo.) for 10 minutes served as positive control. Untreated cells served as controls for spontaneous LDH-release. Specific LDH-release was calculated according to the following formula: LDH-release %=100*(GA or control peptide treated cells—untreated cells)/(positive control-untreated cells). The IC50 values were extrapolated by logarithmic estimation. The LD50 in mg/kg was predicted using the formula, Log (LD50)=0.506×(log IC50)+0.475. […]

[3] = system: activated p65 NF-κB subunit; assay: Nuclear p65 DNA binding (TransAM NF-κB ELISA) in HFB; assay type: cell-based, human; details: Aβ1-42 exposed, 4 hours
Description: Fetal brain materials (10-20 g) were shipped overnight in chilled Hibernate-E medium (Invitrogen) supplemented with B27 (Invitrogen), GlutaMAX (Invitrogen) and antibiotic-antimycotic solution (Cellgro). HFB were prepared and cultured as described. Briefly, cells were cultured in Neurobasal medium (Invitrogen) without phenol red supplemented with 1×B27, […] GlutaMAX, 1×antibiotic cocktail, 5 ng/mL recombinant fibroblast growth factor 2 (bFGF) (Invitrogen), and 2 μL/mL Normocin (InVivoGen, San Diego, Calif., USA). Cells were counted and seeded onto poly-D-lysine (Sigma-Aldrich) coated 24-well plates (Corning, Lowell, Mass., USA) at 1.5×10^5 cells per well and maintained at 37° C. in a 5% CO2 incubator. Half media changes were performed every 4th day of culture and morphology was monitored via phase contrast microscopy. Culture medium was removed from cells on day 17 (DIV17) and replaced with Neurobasal medium with B27. Appropriate wells were then added vehicle, or carrier peptide or individual GA or control peptide (at 50 μM) for 30 min followed by exposure to Aβ1-42 at a final concentration of 10 μM/well and incubated for 4 hours or 48 hours. Cells and conditioned media were harvested and stored for further analysis. Relative ATP concentration was measured using the CTG kit (Promega). Data is presented as ΔRLU=RLU of Aβ1-42 exposed cells-RLU unexposed cells. Conditioned media collected were assessed for specific cytokines using the OptEIA kits (BD Biosciences). Nuclear and cytoplasmic fractions were extracted using the CelLytic™ NuCLEAR™ Extraction Kit (Sigma) following manufacturer's protocol. Five microgram of nuclear extracts was incubated in a 96-well plate coated with oligonucleotides containing the NF-κβ consensus nucleotide sequence (5′-[…]-3′) (SEQ ID NO: 30). The activated NF-κβ bound to DNA was detected by anti-p65 antibody followed by a peroxidase coupled secondary antibody and substrate using the TransAM kit protocol (Active Motif). Nuclear extracts of Raji cells was used as the positive control.
Select PGA protects against Aβ1-42 induced toxicity, prevents p65 activation and cytokine response in human fetal brain (HFB) cells. […] Viability in terms of relative luminescent Units (RLU) was quantified using a Glowmax luminometer (Promega, Wis.). Data are presented as ARLU=RLU of Aβ1-42 exposed cells-RLU of unexposed cells. […] The mean RLU of vehicle treated HFB varied between 7352.75+/−1265.2 and 16157.5+/−4950. […] The culture supernatants were assessed for cytokines by ELISA (R&D Systems, Minn.). […] Primary HFB cultured similarly and harvested at the end of 4 hours was assessed for nuclear p65 using TransAM kit for NF-κB p65 (Active Motif, Calif.).

[4] = dissociation constant, KD, method of Friguet et al.

| Substance | affinity for binding r-p65 relative to r-GILZ [1] | LD50 estimated from IC50 [2] [mg/kg] | nuclear p65 ([3]; 50 μM peptide) | Kd ([1]; KD (uM), score 1/0) [µM] | Kd [1, 4] [µM] | LD50 (mM) [2] | nuclear p65 ([3]; PGA at IC50 concentration) |
| --- | --- | --- | --- | --- | --- | --- | --- |
| Ac-EPAPESPQV-NH2 [GA-2] | greater affinity for binding r-p65 than the full length r-GILZ | 369.42 | trend towards decreased nuclear p65 | – | – | – | – |
| Ac-EPAPESPQV-NH2 [PGA-4] | – | 1693.87 | – | > 3 | 3.28 | 1 (>100) | decreased nuclear p65 |
| Ac-EPAPLAPYG-NH2 [GA-1] | greater affinity for binding r-p65 than the full length r-GILZ | 380.44 | trend towards decreased nuclear p65 | – | – | – | – |
| Ac-EPAPLAPYG-NH2 [PGA-2] | – | 1396.83 | – | < 3 | 2.29 | 1 (>100) | decreased nuclear p65 |
